From patent US20200124600A1, “METHODS OF TREATING AUTOIMMUNE AND INFLAMMATORY DISEASES” (Genentech, Inc., priority 2017, published 2020) come the findings set out here.

pIC50: −log10 of the molar value.

The test system of series [1] is human memory B cells. Put plainly: CD40L induced plasmablast differentiation of memory B cells, flow cytometry. Format: cell-based. The source says:
It was confirmed that plasmablast differentiation was regulated by Bruton's Tyrosine Kinase (BTK) activity by performing an in vitro plasmablasts differentiation assay where human memory B cells were put into differentiating conditions, and were subsequently measured after 5 days using flow cytometry quantification for CD20^loCD38^++ plasmablasts. […] GDC-0852 is (S)-2-(5-Fluoro-2-(hydroxymethyl)-3-(1-methyl-5-(5-(2-methyl-4-(oxetan-3-y-1)piperazin-1-yl)pyridin-2-ylamino)-6-oxo-1,6-dihydropyridin-3-yl)-phenyl)-3,4,6,7,8,9-hexahydropyrido[3,4-b]indolizin-1(2H)-one, the structure of which is shown below:
Plasmablast Differentiation: Memory B cells were isolated from Healthy donor PBMC (Miltenyi Memory B cell isolation kit). […]
(§1) Statistical analyses were performed using either <> or custom scripts written in the R programming language. […] IC50 values for BTK inhibition was calculated using the GraphPad Prism software. […]
(§2) Results: The differentiation of B cells into plasmablast can occur through multiple activation stimuli and involves distinct molecular changes. […] We evaluated the effect of the BTK inhibitor GDC-0852 in the plasmablast differentiation process, either by a T cell-mediated response using CD40L stimulation or a T cell-independent response using the Toll-like receptor ligand, CpG.
In general terms: A flow cytometer gives signals particle by particle.

In series [2] the test system is plasmablast signature genes IgJ, MZB1, TXNDC5. Kind of series: Plasmablast signature gene expression in differentiated memory B cells, Fluidigm quantitative RT-PCR. Format: cell-based, human. To be noted: 370 nM vs DMSO, 5 days, n=4 donors. How it is done: FIGS. 8A, 8B, 8C and 8D. BTK inhibition reduces the plasmablast gene signature. Memory B cells from 4 healthy donors were differentiated into plasmablasts using conditions described above, in the presence of DMSO vehicle or 370 nM GDC-0852. Expression of plasmablast signature genes was measured by Fluidigm, and normalized to a housekeeping gene (HPRT1). Expression values are plotted as the relative transcript abundance to the housekeeping gene. The plasmablast signature was calculated as the geometric mean of the relative abundances of the three individual genes.
(§3) Plasmablast Differentiation: Memory B cells were isolated from Healthy donor PBMC (Miltenyi Memory B cell isolation kit). For the Plasmablast differentiation, 1.5×10^5/ml memory B cells were then cultured in the presence of a cocktail of cytokines, IL-2(20 U/ml), IL-10 (50 ng/ml), IL-15(10 ng/ml), IL-6 (50 ng/ml), IFNa (10 ng/ml) and stimulated with either ODN2006 (TLR-9 ligand) 5 ug/ml, or CD40L (3 ug/ml) for 5 days. The plasmablast differentiation was carried out in the presence of vehicle alone (DMSO) and GDC-0852 at various concentrations, using a 3 fold dose titration of inhibitor starting at 10 uM. Flow cytometry was performed to enumerate ([…]) plasmablast percentages and assess the inhibition by GDC-0852.
RNA Preparation: RNA was extracted from the cells in culture at 5 days from the DMSO and GDC-0852 (370 nM) treated cells (n=4). Cells were disrupting in RLT buffer using the Qiashredder (Qiagen, Valencia, Calif.) and then RNA was extracted using the RNeasy mini kit (Qiagen) including the on-column DNase digestion. The concentration of total RNA and integrity of RNA samples was determined using the NanoDrop 8000 (Thermo Scientific). The isolated RNA was used for the Fluidigm quantitative RT-PCR analyses.
QT PCR: cDNA synthesis was performed on 100 ng total-RNA using an iScript cDNA synthesis kit (Biorad, Hercules, Calif.). Gene-specific pre-amplification was performed (Applied Biosystems) for 3 genes (IgJ, MZB1, TXNDC5 including housekeeping genes TMEM55B. RT-PCR was performed using the BioMark 48.48 Dynamic Arrays (Fluidigm Corporation) using the manufacturer's protocol. Data were collected using the BioMark Data Collection Software and CT values were obtained using the BioMark RT-PCR Analysis Software (V.2.1.1, Fluidigm). The relative abundance (dCt) to HPRT1 was calculated: 2 log−(average Ct gene−average Ct HPRT1). For statistical analyses, values below the lower limit of detection were set to be 1 Ct lower than the lowest recorded value.
as §1

The test system of series [3] is human memory B cells. Put plainly: CpG-mediated plasmablast differentiation of memory B cells, flow cytometry. As to conditions: B-cell, memory B cells from healthy donors, ODN2006 5 ug/ml plus cytokines, n=3, read-out: IC50 potency, inhibition of CpG-mediated plasmablast differentiation. Format: cell-based. The protocol: as §3, §1, §2
For series [4], the system named is plasmablast signature. Put plainly: Plasmablast signature in blood of extra-renal lupus patients, EXPLORER clinical trial. Format: in vivo, human. As to conditions: for expression of the plasmablast signature compared to patients treated with azathioprine: screening samples. How it is done:
(§4) Blood Sample Analysis: 3-gene plasmablast signature expression assay. Blood was collected in PAXgene RNA tubes (PreAnalytiX); total RNA was extracted using commercially available kits according to manufacturer instructions (Qiagen).
(§5) Alternatively, expression of candidate biomarker genes in blood samples was quantified by Fluidigm qPCR assays. 3-gene score was calculated from the mean of IgJ, TXNDC5 and MZB1, and normalized using reference gene TMEM55B. Blood samples were assessed using this assay developed on the Cobas 4800 platform (Roche Molecular Systems).
(§6) Plasmablast signature values were collected from two cohorts of moderate to severe lupus patients from phase II clinical trials assessing the safety and efficacy of rituximab in SLE. The cohorts were patients with either lupus nephritis (LUNAR) or extra-renal lupus (EXPLORER). Mixed effects modeling of plasmablast signature values over the course of treatment, incorporating covariates for age, race, concomitant medications, interferon activity, SLEDAI, visit, treatment arm and their interaction, with patient modeled as a random effect, identified a profound decrease in plasmablast signature specifically within the rituximab treated patients (FIG. 4A, 4B). This effect was most apparent in the time points two weeks after receiving rituximab infusion, with diminishing effect over time.
In the EXPLORER trial, patients were monitored for presence of antibodies directed against mouse-human chimeric antibodies (HACA). […] Using the same linear mixed effects model, as above, a 2.8-fold higher expression of plasmablast marker genes was found in patients that went on to develop HACA (p=0.0007).
Previous studies identified an association between different immunosuppressive treatments and reduced expression of plasmablast-associated genes.

Series [5] deals with plasmablast signature. Kind of series: Plasmablast signature in blood of lupus nephritis patients, LUNAR clinical trial. The series is classed as in vivo, human. How it is done:
as §4, §5
as §6, with “time. […]” for “time.”

By pIC50 is commonly meant −log10 of the IC50, conventionally taken in molar units. As for `C[C@H]1CN(C2COC2)CCN1c1ccc(Nc2cc(-c3cc(F)cc(N4CCc5c(cc6n5CCCC6)C4=O)c3CO)cn(C)c2=O)nc1` [GDC-0852, (S)-2-(5-Fluoro-2-(hydroxymethyl)-3-(1-methyl-5-(5-(2-methyl-4-(oxetan-3-y-1)piperazin-1-yl)pyridin-2-ylamino)-6-oxo-1,6-dihydropyridin-3-yl)-phenyl)-3,4,6,7,8,9-hexahydropyrido[3,4-b]indolizin-1(2H)-one], the pIC50 in series [1] (Homo sapiens, B-cell, 120 h, memory B cells from healthy donors, CD40L 3 ug/ml plus cytokines, day 5, FACS, read-out: IC50 potency, inhibition of CD40L induced plasmablast differentiation) is 7.70; in series [3], 7.32. Also, the “inhibition of CD40L induced plasmablast differentiation” value in series [1] (human memory B cells, measured after 5 days, CD20loCD38++ plasmablasts by flow cytometry) is reported as “inhibited CD40L induced plasmablast differentiation in a dose-dependent manner”. Further, the “expression of plasmablast signature gene MZB1” value in series [2] (p=0.0023) is “significant decrease”. Further, the “composite plasmablast 3 gene signature” value in series [2] (p=0.0026) is on record as “significant decrease”. The “expression of plasmablast signature gene TXNDC5” value in series [2] (p=0.0032) was “significant decrease”. Besides, the “expression of plasmablast signature gene IgJ” value in series [2] (p=0.011) is recorded as “significant decrease”.
Regarding `CN(Cc1cnc2nc(N)nc(N)c2n1)c1ccc(C(=O)N[C@@H](CCC(=O)O)C(=O)O)cc1` [methotrexate], the “expression of the plasmablast signature compared to patients treated with azathioprine” value in series [4] is “much lower expression”.
Take `COc1c(C)c2c(c(O)c1C/C=C(\C)CCC(=O)OCCN1CCOCC1)C(=O)OC2` [mycophenolate, mycophenolate mofetil]: the “expression of plasmablast signature genes in patients on treatment at baseline” value in series [5] (baseline, relatively few patients in the MMF pool) is reported as “trend toward lower expression”. Further, the “expression of the plasmablast signature compared to patients treated with azathioprine” value in series [4] is listed as “much lower expression”.
For the compound rituximab, the “reduction of plasmablast signature expression” value in series [5] (week 28 time point, p=0.0011) is given as 3.31 fold. Further, the “change in plasmablast signature after treatment in patients that went on to develop anti-drug antibodies (HACA)” value in series [4] (HACA-positive patients) is “limited to no decrease”. The “maximum decrease in plasmablast signature” value in series [4] (week 28, two weeks following the fourth infusion, p=2×10^−11) was 3.48 fold.
